How the values were obtained:
Type in all cases: cell-based
SMARCA2 [1] = target: T1, SMARCA2 (Homo sapiens, UniProt P51531); assay: MSD SMARCA2 degradation in A549 cell line; settings: for Dmax: A549, A549 cells; for Dmax / DC50: 24 h; for DC50 / SMARCA2 MSD A549 degradation 24 h: Average Dmax %: A549 cells; for DC50: read-out: SMARCA2 MSD A549 degradation 24 h: Average external-Abs DC50
Outline: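 SMARCA2 protein remaining after 24 h exposure of A549 cells (top concentration 1000 nM, 3-fold dilutions) was measured by MSD electrochemiluminescence immunoassay of cell lysates. Results are given as binned DC50 and maximal degradation (Dmax) codes.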

SMARCA4 = target: T2, SMARCA4 (Homo sapiens, UniProt P51532); assay: SMARCA4 Western blot degradation in MV4-11 cells; settings: for Dmax: MV4-11, MV4-11 cells, read-out: SMARCA4 MSD MV411 degradation 24 h: average Dmax %; for Dmax / DC50: 24 h; for DC50 / SMARCA4 MSD MV411 degradation 24 h: average Dmax %: MV4-11 cells; for DC50: read-out: SMARCA4 MSD MV411 degradation 24 h: Mean external-Abs DC50
T2 construct: SMARCA2/SMARCA4 protein degradation selectivity in MV4-11 cells; endogenous in cells; host or cells: MV4-11
T2 sequence (P51532 whole entry): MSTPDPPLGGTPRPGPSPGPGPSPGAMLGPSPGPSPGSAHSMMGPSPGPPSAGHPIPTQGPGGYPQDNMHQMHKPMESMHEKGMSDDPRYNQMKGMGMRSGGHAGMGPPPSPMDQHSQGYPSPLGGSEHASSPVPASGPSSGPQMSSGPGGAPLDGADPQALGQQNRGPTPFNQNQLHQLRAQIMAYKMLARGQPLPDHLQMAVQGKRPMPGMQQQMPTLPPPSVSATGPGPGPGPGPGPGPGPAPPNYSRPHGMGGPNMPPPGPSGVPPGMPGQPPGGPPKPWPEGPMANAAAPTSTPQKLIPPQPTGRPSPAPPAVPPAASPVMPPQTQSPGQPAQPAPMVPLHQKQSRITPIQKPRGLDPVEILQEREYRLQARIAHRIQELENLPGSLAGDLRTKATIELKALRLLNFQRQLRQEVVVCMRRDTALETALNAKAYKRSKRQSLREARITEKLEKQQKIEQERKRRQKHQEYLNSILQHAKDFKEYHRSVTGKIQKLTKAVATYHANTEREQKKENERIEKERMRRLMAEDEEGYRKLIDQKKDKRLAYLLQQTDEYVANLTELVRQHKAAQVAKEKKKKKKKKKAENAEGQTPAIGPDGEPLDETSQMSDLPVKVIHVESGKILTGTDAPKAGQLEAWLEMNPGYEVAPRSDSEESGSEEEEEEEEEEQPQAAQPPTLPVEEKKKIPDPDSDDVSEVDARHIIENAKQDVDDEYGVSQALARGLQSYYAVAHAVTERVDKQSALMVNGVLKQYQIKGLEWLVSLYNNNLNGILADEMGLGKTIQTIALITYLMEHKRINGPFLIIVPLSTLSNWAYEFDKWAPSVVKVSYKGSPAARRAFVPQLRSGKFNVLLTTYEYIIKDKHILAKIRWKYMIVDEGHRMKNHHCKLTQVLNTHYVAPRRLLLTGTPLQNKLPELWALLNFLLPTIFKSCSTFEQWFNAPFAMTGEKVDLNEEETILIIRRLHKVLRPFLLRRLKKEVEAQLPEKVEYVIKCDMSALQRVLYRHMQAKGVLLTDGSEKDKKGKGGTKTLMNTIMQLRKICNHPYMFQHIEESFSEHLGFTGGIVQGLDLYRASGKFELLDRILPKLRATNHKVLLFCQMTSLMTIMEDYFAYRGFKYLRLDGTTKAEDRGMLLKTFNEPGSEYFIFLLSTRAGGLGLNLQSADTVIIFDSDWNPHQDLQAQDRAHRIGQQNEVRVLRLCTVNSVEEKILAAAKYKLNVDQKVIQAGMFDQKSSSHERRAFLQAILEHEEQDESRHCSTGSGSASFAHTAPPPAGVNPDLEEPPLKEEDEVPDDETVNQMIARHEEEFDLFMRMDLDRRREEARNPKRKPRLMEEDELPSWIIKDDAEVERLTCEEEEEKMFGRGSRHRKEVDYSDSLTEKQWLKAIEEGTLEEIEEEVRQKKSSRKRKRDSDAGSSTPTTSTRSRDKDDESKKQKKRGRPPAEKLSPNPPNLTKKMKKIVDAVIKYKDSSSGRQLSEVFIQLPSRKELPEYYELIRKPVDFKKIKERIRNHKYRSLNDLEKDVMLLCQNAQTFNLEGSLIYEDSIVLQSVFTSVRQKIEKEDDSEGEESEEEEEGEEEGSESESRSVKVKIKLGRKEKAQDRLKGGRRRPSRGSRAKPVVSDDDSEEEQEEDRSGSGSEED
Outline: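 Protein levels quantified by LI-COR Western blot (beta-actin loading control) in RIPA lysates of MV4-11 cells after 24 h compound exposure. Degradation reported as DC50, Dmax % at 24 h and SMARCA2 vs SMARCA4 selectivity, each binned into letter codes.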

SMARCA2 [2] = target: T1, SMARCA2; assay: SMARCA2 Western blot degradation in MV4-11 cells; set-up: SMARCA2/SMARCA4 protein degradation selectivity in MV4-11 cells; endogenous in cells; host or cells: MV4-11; settings: for Dmax: MV4-11, MV4-11 cells, read-out: SMARCA2 MSD MV411 degradation 24 h: average Dmax %; for Dmax / DC50 / SMARCA2 MSD MV411 degradation 24 h: average Dmax %: 24 h; for DC50 / Selectivity in MV411 / SMARCA2 MSD MV411 degradation 24 h: average Dmax %: MV4-11 cells; for DC50: read-out: SMARCA2 MSD MV411 degradation 24 h: Mean external-Abs DC50; for Selectivity in MV411: SMARCA2/4 selectivity

T1 sequence (P51531 whole entry): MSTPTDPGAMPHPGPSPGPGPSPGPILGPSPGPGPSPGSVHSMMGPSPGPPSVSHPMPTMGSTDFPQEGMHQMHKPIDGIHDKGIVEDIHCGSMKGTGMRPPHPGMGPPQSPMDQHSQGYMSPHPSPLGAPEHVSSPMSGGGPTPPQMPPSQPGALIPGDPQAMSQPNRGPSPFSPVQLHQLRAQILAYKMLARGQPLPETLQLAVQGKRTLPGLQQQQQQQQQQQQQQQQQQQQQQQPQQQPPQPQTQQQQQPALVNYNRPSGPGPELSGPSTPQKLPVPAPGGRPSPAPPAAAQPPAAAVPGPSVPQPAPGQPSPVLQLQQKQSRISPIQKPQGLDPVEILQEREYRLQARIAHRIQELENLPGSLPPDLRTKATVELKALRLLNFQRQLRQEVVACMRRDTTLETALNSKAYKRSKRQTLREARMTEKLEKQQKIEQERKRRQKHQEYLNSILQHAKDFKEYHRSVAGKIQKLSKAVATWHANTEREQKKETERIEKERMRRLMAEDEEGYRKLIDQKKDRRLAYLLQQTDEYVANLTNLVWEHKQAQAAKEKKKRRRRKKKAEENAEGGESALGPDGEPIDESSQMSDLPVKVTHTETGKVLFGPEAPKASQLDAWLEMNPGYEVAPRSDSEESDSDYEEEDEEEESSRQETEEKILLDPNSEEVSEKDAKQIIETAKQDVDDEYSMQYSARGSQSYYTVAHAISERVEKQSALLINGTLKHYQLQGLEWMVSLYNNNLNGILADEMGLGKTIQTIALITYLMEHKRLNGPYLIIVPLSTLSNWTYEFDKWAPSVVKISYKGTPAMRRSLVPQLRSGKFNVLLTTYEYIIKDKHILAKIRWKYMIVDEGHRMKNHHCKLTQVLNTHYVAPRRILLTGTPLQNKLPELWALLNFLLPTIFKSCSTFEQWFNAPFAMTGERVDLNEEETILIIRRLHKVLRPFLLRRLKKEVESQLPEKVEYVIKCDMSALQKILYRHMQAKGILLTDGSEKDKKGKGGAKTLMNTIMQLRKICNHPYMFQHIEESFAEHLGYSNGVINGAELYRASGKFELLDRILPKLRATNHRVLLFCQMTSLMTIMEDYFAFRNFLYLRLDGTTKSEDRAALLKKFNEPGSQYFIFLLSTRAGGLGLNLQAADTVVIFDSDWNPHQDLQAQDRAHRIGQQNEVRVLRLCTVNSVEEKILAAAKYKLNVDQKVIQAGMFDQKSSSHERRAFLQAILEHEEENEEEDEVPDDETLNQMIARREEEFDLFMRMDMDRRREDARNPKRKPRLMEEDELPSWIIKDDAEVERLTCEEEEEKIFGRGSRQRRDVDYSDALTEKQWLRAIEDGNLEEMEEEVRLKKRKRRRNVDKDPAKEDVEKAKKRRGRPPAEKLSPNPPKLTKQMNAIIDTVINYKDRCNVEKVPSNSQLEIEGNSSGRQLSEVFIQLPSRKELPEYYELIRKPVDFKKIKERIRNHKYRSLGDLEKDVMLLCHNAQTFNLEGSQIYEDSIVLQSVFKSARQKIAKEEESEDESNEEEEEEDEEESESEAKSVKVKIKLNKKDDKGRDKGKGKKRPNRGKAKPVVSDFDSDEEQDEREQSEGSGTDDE

Structure (SMILES) | Dmax (SMARCA2 [1]) [%] | DC50 (SMARCA2 [1]) [nM] | Dmax (SMARCA4) [%] | DC50 (SMARCA4) [nM] | Dmax (SMARCA2 [2]) [%] | DC50 (SMARCA2 [2]) [nM] | Selectivity in MV411 (SMARCA2 [2]) | SMARCA2 MSD A549 degradation 24 h: Average Dmax % (SMARCA2 [1]) | SMARCA4 MSD MV411 degradation 24 h: average Dmax % (SMARCA4) | SMARCA2 MSD MV411 degradation 24 h: average Dmax % (SMARCA2 [2])
Cc1ncsc1-c1ccc(CNC(=O)[C@@H]2C[C@@H](O)CN2C(=O)[C@@H](NC(=O)C2CC3(C2)CC(N2CCC(N4CCC(N5CCN6c7cc(-c8ccccc8O)nnc7NC[C@H]6C5)CC4)CC2)C3)C(C)(C)C)cc1 (stereo partly shown) [I-75] | > 90 | > 100 | < 50 | > 100 | 70 to 90 | 1 to 10 | A (A (>500 fold)) | – | – | –
C#Cc1ccc(CNC(=O)[C@@H]2C[C@@H](O)CN2C(=O)[C@@H](NC(=O)N2CCC(CN3CCC(N4CCc5[nH]c6nnc(-c7ccccc7O)cc6c5[C@H]4C)CC3)CC2)C(C)(C)C)cc1 [I-198] | 70 to 90 | > 100 | < 50 | > 100 | 50 to 70 | 10 to 100 | C (C (10-100 fold)) | – | – | –
C#Cc1ccc(CNC(=O)[C@@H]2C[C@@H](O)CN2C(=O)[C@H](NC(=O)N2CC3(CC(N4CCC(c5cnc(N6CCc7[nH]c8nnc(-c9ccccc9O)cc8c7[C@H]6C)nc5)CC4)C3)C2)C(C)(C)CCN2CCNCC2)cc1 [I-339] | < 50 | > 100 | < 50 | > 100 | < 50 | > 100 | C (C (10-100 fold)) | – | – | –
C#Cc1ccc(CNC(=O)[C@@H]2C[C@@H](O)CN2C(=O)[C@@H](NC(=O)N2CC3(CC(N4CCC([C@H]5CC[C@@H](N6CCc7[nH]c8nnc(-c9ccccc9O)cc8c7[C@H]6C)CC5)CC4)C3)C2)C(C)(C)C)cc1 [I-185] | > 90 | > 100 | 70 to 90 | > 100 | 70 to 90 | 10 to 100 | C (C (10-100 fold)) | – | – | –
C#CCOc1cc(C(C(=O)N2C[C@H](O)C[C@H]2C(=O)NCc2ccc(-c3scnc3C)cc2O[C@H]2CC[C@H](N3CCC(c4cnc(N5CCc6[nH]c7nnc(-c8ccccc8O)cc7c6[C@@H]5C)nc4)CC3)CC2)C(C)C)on1 (single isomer, unassigned) [I-40] | 70 to 90 | > 100 | 70 to 90 | > 100 | 70 to 90 | 10 to 100 | D (D (<10 fold)) | – | – | –
C#Cc1ccc(CNC(=O)[C@@H]2C[C@@H](O)CN2C(=O)[C@@H](NC(=O)N2CC3(CC(CN4CCC(N5CCC(N6CCc7[nH]c8nnc(-c9ccccc9O)cc8c7[C@H]6C)CC5)CC4)C3)C2)C(C)(C)C)cc1 [I-190] | > 90 | > 100 | 50 to 70 | > 100 | 50 to 70 | 10 to 100 | C (C (10-100 fold)) | – | – | –
C#Cc1ccc(CNC(=O)[C@@H]2C[C@@H](O)CN2C(=O)[C@@H](NC(=O)N2CC3(CC(N4CCC(c5cnc(N6CCc7[nH]c8nnc(-c9ccccc9O)cc8c7[C@H]6C)nc5)CC4)C3)C2)C(C)(C)CCN2CCNCC2)cc1 [I-340] | 50 to 70 | > 100 | < 50 | > 100 | < 50 | > 100 | C (C (10-100 fold)) | – | – | –
C#Cc1ccc(CNC(=O)[C@@H]2C[C@@H](O)CN2C(=O)[C@@H](NC(=O)N2CC3(CC(N4CCC(N5CCC(N6CCc7[nH]c8nnc(-c9ccccc9O)cc8c7[C@H]6C)CC5)CC4)C3)C2)C(C)(C)C)c(F)c1 [I-181] | > 90 | > 100 | < 50 | > 100 | 50 to 70 | 10 to 100 | B (B (>100-500 fold)) | – | – | –
C#Cc1ccc(CNC(=O)[C@@H]2C[C@@H](O)CN2C(=O)[C@H](NC(=O)N2CC3(CC(N4CCC(c5cnc(N6CCc7[nH]c8nnc(-c9ccccc9O)cc8c7[C@H]6C)nc5)CC4)C3)C2)C(C)(C)CCN2CCN[C@@H](C(=O)O)C2)cc1 [I-341] | < 50 | > 100 | < 50 | > 100 | < 50 | > 100 | C (C (10-100 fold)) | – | – | –

Further lines, results first:

Dmax (SMARCA2 [1]) [%] | DC50 (SMARCA2 [1]) [nM] | Dmax (SMARCA4) [%] | DC50 (SMARCA4) [nM] | Dmax (SMARCA2 [2]) [%] | DC50 (SMARCA2 [2]) [nM] | Selectivity in MV411 (SMARCA2 [2]) | SMARCA2 MSD A549 degradation 24 h: Average Dmax % (SMARCA2 [1]) | SMARCA4 MSD MV411 degradation 24 h: average Dmax % (SMARCA4) | SMARCA2 MSD MV411 degradation 24 h: average Dmax % (SMARCA2 [2]) | Structure (SMILES)
> 90 | 10 to 50 | < 50 | > 100 | 70 to 90 | 1 to 10 | B (B (>100-500 fold)) | – | – | – | C#Cc1ccc([C@H](CCO)NC(=O)[C@@H]2C[C@@H](O)CN2C(=O)[C@@H](NC(=O)N2CC3(CC(N4CCC(c5cnc(N6CCc7[nH]c8nnc(-c9ccccc9O)cc8c7[C@H]6C)nc5)CC4)C3)C2)C(C)(C)C)cc1 [I-169]
> 90 | 10 to 50 | > 90 | 10 to 100 | > 90 | 1 to 10 | C (C (10-100 fold)) | – | – | – | C#Cc1ccc(CNC(=O)[C@@H]2C[C@@H](O)CN2C(=O)[C@@H](NC(=O)[C@H]2CCC3(CC2)C[C@H](N2CCC(c4cnc(N5CCN6c7cc(-c8ccccc8O)nnc7NC[C@H]6C5)nc4)CC2)C3)C(C)(C)C)c(OCCCN(C)C)c1 (single isomer, unassigned) [I-129]
70 to 90 | > 100 | 50 to 70 | > 100 | < 50 | 10 to 100 | B (B (>100-500 fold)) | – | – | – | Cc1ncsc1-c1ccc(CNC(=O)[C@@H]2C[C@@H](O)CN2C(=O)[C@@H](NC(=O)C2(F)CC2)C(C)(C)C)c(O[C@H]2CC[C@@H](N3CCC(c4cnc(N5CCc6[nH]c7nnc(-c8ccccc8O)cc7c6[C@@H]5C)nc4)CC3)CC2)c1 (single isomer, unassigned) [I-34]
> 90 | 50 to 100 | 50 to 70 | > 100 | > 90 | 10 to 100 | C (C (10-100 fold)) | – | – | – | C#Cc1ccc(CNC(=O)[C@@H]2C[C@@H](O)CN2C(=O)[C@@H](NC(=O)[C@H]2CCC3(CC2)C[C@H](N2CCN(c4cnc(N5CCN6c7cc(-c8ccccc8O)nnc7NC[C@H]6C5)nc4)CC24CC4)C3)C(C)(C)C)cc1 (stereo partly shown) [I-266]
– | > 100 | – | > 100 | – | 10 to 100 | C (C (10-100 fold)) | B (B (>70-90% degradation)) | D (D (<50% degradation)) | C (C (50-70% degradation)) | C#Cc1ccc(CNC(=O)[C@@H]2C[C@@H](O)CN2C(=O)[C@@H](NC(=O)[C@H]2CCC3(CC2)C[C@H](N2CCC(N4CCC(N5CCN6c7cc(-c8ccccc8O)nnc7NC[C@H]6C5)CC4)CC2)C3)C(C)(C)C)c(F)c1 (stereo partly shown) [I-258]
– | 50 to 100 | – | > 100 | – | 1 to 10 | C (C (10-100 fold)) | A (A (>90% degradation)) | C (C (50-70% degradation)) | B (B (>70-90% degradation)) | C#Cc1ccc(CNC(=O)[C@@H]2C[C@@H](O)CN2C(=O)[C@@H](NC(=O)[C@H]2CCC3(CC2)C[C@H](N2CCC(N(C)CCN4CCN5c6cc(-c7ccccc7O)nnc6NC[C@H]5C4)CC2)C3)C(C)(C)C)cc1 (single isomer, unassigned) [I-247]
> 90 | 10 to 50 | > 90 | 10 to 100 | > 90 | 1 to 10 | D (D (<10 fold)) | – | – | – | Cc1ncsc1-c1ccc(CNC(=O)[C@@H]2C[C@@H](O)CN2C(=O)C(c2cc(N3CC4(CC(N5CCC(c6cnc(N7CCc8[nH]c9nnc(-c%10ccccc%10O)cc9c8[C@@H]7C)nc6)CC5)C4)C3)no2)C(C)C)cc1 (stereo partly shown) [I-11]
